Laboratory results reported in patent publication US20260102425A1 (Allergan, Inc., priority 2018, published 2026).

Test system: Staphylococcus aureus ATCC 29213
Experiment: Time kill efficacy against Staphylococcus aureus ATCC 29213 (log drop after 30 seconds of exposure)
Assay type: cell-based
Method: Time kill efficacy experiments were performed against Staphylococcus aureus ATCC 29213 (S aureus). Plates with Tryptic Soy agar (TSA) were inoculated with cultures of S aureus and incubated at 30-35° C. for 24 hours. Bacterial cultures were harvested and sample suspensions were adjusted to contain approximately […] colony-forming units (CFU) per milliliter. […] After 30 seconds of exposure, 1 mL of the test suspension was removed and added to 9.0 ml of Dey-Engley neutralizer. One hundred μL of this neutralized suspension was plated in triplicates on TSA plates using an automated spiral plating instrument (Eddyjet 2, Neutec group Inc, New York, USA), with 7 log serial dilution mode. All bacterial plates were incubated at 30-35° C. for 2 days. The log drop values are determined as the difference between the logged CFU in the plates with and without the test article.

## sodium chlorite
0.5% Brij 35 added to 5% povidone-iodine or to 8000 ppm sodium chlorite activated at pH 5, FIGS. 5A-5B
  Δ log reduction in the presence of 0.5% Brij 35 compared to alone: 1.6
0.5% Pluronic F-127 added to 5% povidone-iodine or to 8000 ppm sodium chlorite activated at pH 5, FIGS. 5A-5B
  Δ log reduction in the presence of 0.5% Pluronic F-127 compared to alone: 1.46
0.5% polysorbate 80 added to 5% povidone-iodine or to 8000 ppm sodium chlorite activated at pH 5, FIGS. 5A-5B
  Δ log reduction in the presence of 0.5% polysorbate 80 compared to alone: 2.9
800 ppm-8000 ppm sodium chlorite, pH 5 buffer, with 0.5% PS80, FIG. 2
  kill efficacy compared to sodium chlorite-only formulations and 5% povidone-iodine: more efficacious than sodium chlorite-only formulations
4800 ppm and 6400 ppm sodium chlorite, pH 5 buffer, without PS80, FIG. 2
  kill efficacy compared to 5% povidone-iodine: more efficacious than 5% povidone-iodine
8000 ppm sodium chlorite activated at pH 5, alone, FIG. 5B
  log reductions, alone: 2.0-3.0
8000 ppm sodium chlorite activated at pH 5, FIG. 5B
  efficacy with 0.5% polysorbate 80 compared to formulations containing 0.5% Brij 35 or 0.5% Pluronic F-127: significantly greater
8000 ppm sodium chlorite activated with pH 2 buffer, 30 seconds exposure, FIG. 1, n=3
  log reduction: 5.0
8000 ppm sodium chlorite activated with pH 3 buffer, 30 seconds exposure, FIG. 1, n=3
  log reduction: 5.0
8000 ppm sodium chlorite activated with pH 4 buffer, 30 seconds exposure, FIG. 1, n=3
  log reduction: 5.0
8000 ppm sodium chlorite activated with pH 5 buffer, 30 seconds exposure, FIG. 1, n=3
  log reduction: 2.4
8000 ppm sodium chlorite pH4, 10% FBS, 0.5% PS80, FIG. 6
  effect of 0.5% PS80 on log reduction: significantly increased the log reduction
8000 ppm sodium chlorite pH 4, 10% FBS, PS80 0.015% or 0.025%, FIG. 6
  bactericidal effectiveness on addition of PS80 at lower concentrations: not significantly affected
8000 ppm sodium chlorite pH 4 and 0.5% PS80, with 10% FBS, FIG. 6
  effect of the presence of FBS on log reduction: essentially unaffected
8000 ppm sodium chlorite pH 5 plus Brij 35 0.05%-0.5%, FIG. 3
  effect of added Brij 35 on kill efficacy: enhanced the efficacy
8000 ppm sodium chlorite pH 5 plus Pluronic F-127 at 0.25% and 0.5%, FIG. 4, N=1
  effect of added Pluronic F-127 on kill efficacy: appeared to augment the efficacy
8000 ppm sodium chlorite, pH 4 buffer, absence of both 10% FBS and PS80, FIG. 6
  log reduction: about 5
8000 ppm sodium chlorite, pH 4 buffer, in the presence of 10% FBS (organic load), no PS80, FIG. 6
  log reduction: about 2
